In patent US8101642B2, “3-substituted propanamine compounds” (SK Biopharmaceuticals Co., Ltd., priority 2008, dated 2012):

Assays:
[1] = test system: mice; experiment: Forced swimming test in mice (FST); assay type: in vivo; conditions: Mus musculus, 0.5 h, 30ip, reduction in duration of immobility vs control group, 30 min after administration
Procedure: Forced swimming Test in Mice (FST)
The Forced swimming test is an animal model based on the rodent's behavioral repertoire for screening drugs with potential antidepressant activity. As in several other models used for this goal, an uncontrollable stress stimulus produces behavioral changes that are sensitive to antidepressant treatment.
The mice were intraperitoneally treated with the test compound with an injection volume of […]. The group treated with 30% PEG400 served as a control group. Thirty minutes following administration, mice were individually forced to swim in a transparent glass vessel (14 cm high, 11.5 cm in diameter) filled with 10 cm of water at 25° C. The total duration of immobility (second) was measured during the last 4 minutes of a single 6-min test session. Mice were considered immobile when they made no further attempts to escape other than the movements necessary to keep their heads above the water. The potent ability of the compounds was determined as percent value of reduction in the duration of immobility comparing to the control group.

[2] = biological target: T1, human recombinant dopamine transporter (Homo sapiens, UniProt Q01959); experiment: Dopamine transporter reuptake inhibition assay ([3H]Dopamine uptake); assay type: cell-based; conditions: CHO-K1 cells with human recombinant dopamine transporter; for inhibition at 0.1 µM: 100 nM, read-out: Inhibition % at 100 nM DA reuptake
T1 construct: expressed in transfected cells; host or cells: CHO-K1
Procedure: Dopamine Transporter Reuptake Inhibition Assay
CHO-K1 cells with human recombinant dopamine transporter were plated. Test compounds were pre-incubated with cells (4×10^5/ml) in modified Tris-HEPES buffer pH 7.1 for 20 minutes at 25° C. and then they were incubated for additional 10 minutes after 50 nM of [^3H]Dopamine was added. A lysate is obtained from solubilized cells and counted to determine [^3H]Dopamine uptake. Reduction of [^3H]Dopamine uptake by 50 percent or more (≧50%) relative to 10 μM nomifensine indicates significant inhibitory activity.

[3] = test system: mice; experiment: Acetic acid induced writhing test (AA writhing test); assay type: in vivo; conditions: Mus musculus, 0.5 h, 30sc, reduction in number of writhing vs control group, 0.8% acetic acid ip 30 min after compound
Excerpt: Acetic Acid Induced Writhing Test (AA Writhing Test)
The Acetic acid-induced writhing test is a well-established nociceptive test using a chemical stimulus. Although several animal models of nociceptive tests have been developed to examine and compare the anti-nociceptive effects of different drugs, the anti-nociceptive effects of antidepressants appear to be test-dependent. Indeed, the acetic acid-induced writhing test is more sensitive to antidepressants than other tests using thermal, mechanical or electrical stimuli.
The animals were subcutaneously treated with the test compound with an injection volume of 10 ml/kg. The group treated with 30% PEG400 or saline served as a control group. Thirty minutes later, the mice were intraperitoneally treated with 0.8% (v/v) acetic acid. Each mouse was then placed in a cage for individual observation. The writhing numbers for 10 minutes were counted. The writhe is operationally defined as a contraction of the abdomen followed by stretching of the hind limbs. The potent ability of the compounds was determined as percent value of reduction in the number of writhing comparing to the control group.

[4] = biological target: T2, human serotonin transporter (Homo sapiens, UniProt P31645); experiment: Serotonin transporter reuptake inhibition assay ([3H]Serotonin uptake); assay type: cell-based; conditions: recombinant HEK-293 cells with human serotonin transporter; for inhibition at 0.1 µM: HEK293, 100 nM, read-out: Inhibition % at 100 nM 5-HT reuptake
T2 construct: expressed in transfected cells; host or cells: HEK-293
Procedure: Serotonin Transporter Reuptake Inhibition Assay
The recombinant HEK-293 cells with human serotonin transporter were plated. Test compounds described in table 1 were pre-incubated with cells (2×10^5/ml) in modified Tris-HEPES buffer pH 7.1 for 20 minutes at 25° C. and then they were incubated for additional 10 minutes after 65 nM of [^3H]Serotonin was added. Bound cells were filtered and counted to determine [^3H]Serotonin uptake. Reduction of [^3H]Serotonin uptake by 50 percent or more (≧50%) relative to 10 μM fluoxetine indicates significant inhibitory activity.

[5] = test system: mice; experiment: Marble burying test; assay type: in vivo; conditions: reduction in number of marbles buried vs control group, 30 min after treatment
Excerpt: The Marble burying test is a screening tool for putative anxiolytics. In this test, control mice naturally bury glass marbles in the cage bedding and the administration of anxiolytic compounds, including Diazepam, reduces the number of buried marbles. Positive compounds in the marble burying test including selective serotonin reuptake inhibitor may be especially beneficial to obsessive-compulsive disorder.
A group of mice was intraperitoneally treated with test compound dissolved in 30% PEG400 with an injection volume of 10 ml/kg. The group treated with only 30% PEG400 served as a control group. Thirty minutes after the treatment, the animals were individually placed in a polycarbonate cage which was same as used for animal housing with an open top located within a quiet room. Each cage consisted of ⅛ inch corn bedding 5 cm deep. Twenty four clean glass marbles (15 mm diameter) were evenly spaced in four rows of six on top of the bedding. Each mouse was left in the cage for 30 minutes and the number of marbles buried (buried more than ½ or ⅔) was counted. The potent ability of the compounds was determined as percent value of reduction in the number of marbles buried comparing to the control group.

[6] = biological target: T3, human recombinant norepinephrine transporter (Homo sapiens, UniProt P23975); experiment: Norepinephrine transporter reuptake inhibition assay ([3H]Norepinephrine uptake); assay type: cell-based; conditions: for inhibition at 0.1 µM: 100 nM, MDCK cells with human recombinant norepinephrine transporter, read-out: Inhibition % at 100 nM NE reuptake
T3 construct: expressed in transfected cells; host or cells: MDCK
Procedure: Norepinephrine Transporter Reuptake Inhibition Assay
MDCK cells with stably expressed human recombinant norepinephrine transporter were plated one day. Test compounds were pre-incubated with cells (2×10^5/ml) in modified Tris-HEPES buffer pH 7.1 for 20 minutes at 25° C. and then they were incubated for additional 10 minutes after 25 nM of [^3H]Norepinephrine was added. A lysate was obtained from solubilized cells and the filtered lysate was counted to determine [^3H]Norepinephrine uptake. Reduction of [^3H]Norepinephrine uptake by 50 percent or more (≧50%) relative to 10 μM desipramine indicates significant inhibitory activity.

T2 sequence (P31645 whole entry): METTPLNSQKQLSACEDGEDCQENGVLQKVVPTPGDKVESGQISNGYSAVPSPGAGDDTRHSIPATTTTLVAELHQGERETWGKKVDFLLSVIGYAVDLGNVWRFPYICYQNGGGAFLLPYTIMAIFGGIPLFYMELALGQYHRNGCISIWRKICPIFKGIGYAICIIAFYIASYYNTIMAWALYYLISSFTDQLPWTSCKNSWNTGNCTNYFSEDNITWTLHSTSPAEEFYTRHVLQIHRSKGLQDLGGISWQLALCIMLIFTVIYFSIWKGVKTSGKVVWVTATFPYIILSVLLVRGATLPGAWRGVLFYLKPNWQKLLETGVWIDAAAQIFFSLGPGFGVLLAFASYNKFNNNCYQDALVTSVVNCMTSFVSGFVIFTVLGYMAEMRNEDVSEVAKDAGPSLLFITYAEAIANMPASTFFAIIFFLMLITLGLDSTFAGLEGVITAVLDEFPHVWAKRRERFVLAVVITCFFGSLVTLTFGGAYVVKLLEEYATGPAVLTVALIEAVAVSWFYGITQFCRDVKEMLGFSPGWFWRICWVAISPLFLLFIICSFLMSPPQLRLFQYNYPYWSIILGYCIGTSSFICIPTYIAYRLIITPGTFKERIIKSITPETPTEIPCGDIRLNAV
T3 sequence (P23975 whole entry): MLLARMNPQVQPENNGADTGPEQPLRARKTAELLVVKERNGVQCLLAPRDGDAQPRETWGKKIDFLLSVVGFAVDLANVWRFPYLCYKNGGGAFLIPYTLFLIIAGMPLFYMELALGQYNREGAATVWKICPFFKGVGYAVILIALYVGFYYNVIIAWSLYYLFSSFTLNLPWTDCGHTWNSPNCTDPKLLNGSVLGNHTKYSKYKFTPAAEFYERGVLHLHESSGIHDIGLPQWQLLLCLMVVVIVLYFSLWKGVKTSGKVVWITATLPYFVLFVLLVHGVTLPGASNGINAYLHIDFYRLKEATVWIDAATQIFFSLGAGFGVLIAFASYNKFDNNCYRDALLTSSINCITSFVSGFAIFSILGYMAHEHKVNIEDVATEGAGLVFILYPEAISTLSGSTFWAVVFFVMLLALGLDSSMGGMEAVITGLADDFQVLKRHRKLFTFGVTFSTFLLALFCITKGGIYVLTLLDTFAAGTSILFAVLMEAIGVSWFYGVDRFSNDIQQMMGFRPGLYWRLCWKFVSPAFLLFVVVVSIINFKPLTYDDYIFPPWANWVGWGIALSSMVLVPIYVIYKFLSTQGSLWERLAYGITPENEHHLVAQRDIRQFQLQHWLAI
T1 sequence (Q01959 whole entry): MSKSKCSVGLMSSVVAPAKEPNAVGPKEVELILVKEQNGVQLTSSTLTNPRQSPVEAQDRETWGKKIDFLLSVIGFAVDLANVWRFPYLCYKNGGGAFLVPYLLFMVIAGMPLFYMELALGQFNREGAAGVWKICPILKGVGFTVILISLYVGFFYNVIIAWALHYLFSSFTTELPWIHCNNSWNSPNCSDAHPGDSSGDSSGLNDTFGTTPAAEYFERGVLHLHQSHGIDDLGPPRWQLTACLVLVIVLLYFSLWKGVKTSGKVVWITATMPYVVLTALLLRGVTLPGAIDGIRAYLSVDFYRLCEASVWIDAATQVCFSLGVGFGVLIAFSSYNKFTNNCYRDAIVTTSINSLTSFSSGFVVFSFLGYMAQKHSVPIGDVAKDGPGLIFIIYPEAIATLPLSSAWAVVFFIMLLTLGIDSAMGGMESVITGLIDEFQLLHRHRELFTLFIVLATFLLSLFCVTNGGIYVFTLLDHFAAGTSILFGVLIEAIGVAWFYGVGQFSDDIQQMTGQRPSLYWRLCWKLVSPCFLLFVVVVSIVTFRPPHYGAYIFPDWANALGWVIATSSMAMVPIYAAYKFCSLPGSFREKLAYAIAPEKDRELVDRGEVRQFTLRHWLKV

Compound	inhibition in vivo at 30 mg/kg [1] [%]	inhibition at 0.1 µM [2] [%]	inhibition in vivo at 30 mg/kg [3] [%]	inhibition at 0.1 µM [4] [%]	Reduction % at 30ip [5] [%]	inhibition at 0.1 µM [6] [%]	Inhibition % at 100 nM DA reuptake [2] [%]	Inhibition % at 100 nM 5-HT reuptake [4] [%]	Inhibition % at 100 nM NE reuptake [6] [%]	Reduction % (at 10ip) ([5]; 10ip) [%]
CN(C)CCC(c1ccc(Cl)c(Cl)c1)n1ncnn1 (stereo not drawn) [Example 1, [3-(3,4-Dichloro-phenyl)-3-tetrazol-2-yl-propyl]-dimethyl-amine]	24.9	58	55.3	27	54.8	37				
CNCCC(c1ccc(Cl)c(Cl)c1)n1ncnn1 (stereo not drawn) [Example 2, [3-(3,4-Dichloro-phenyl)-3-tetrazol-2-yl-propyl]-methyl-amine]	82.4		50.3		100		48	35	56	
CN(C)CCC(c1ccc2ccccc2c1)n1ncnn1 (stereo not drawn) [Example 6, Dimethyl-(3-naphthalen-2-yl-3-tetrazol-2-yl-propyl)-amine]	41.4	20	60.2	41	87.7	30				
CN(C)CCC(c1ccc2cc(Cl)ccc2c1)n1ncnn1 (stereo not drawn) [Example 14, [3-(6-Chloro-naphthalen-2-yl)-3-tetrazol-2-yl-propyl]-dimethyl-amine]		18		46		32				
COc1ccc2cc(C(CCN(C)C)n3ncnn3)ccc2c1 (stereo not drawn) [Example 21, [3-(6-Methoxy-naphthalen-2-yl)-3-tetrazol-2-yl-propyl]-dimethyl-amine]		36		44		39				
CN(C)CCC(c1ccc2cc(F)ccc2c1)n1ncnn1 (stereo not drawn) [Example 50, [3-(6-Fluoro-naphthalen-2-yl)-3-tetrazol-2-yl-propyl]-dimethyl-amine]	35	7	53.8	61	86.2	12				
Cc1nnn(C(CCN(C)C)c2ccc3cc(F)ccc3c2)n1 (stereo not drawn) [Example 51, [3-(6-Fluoro-naphthalen-2-yl)-3-(5-methyl-tetrazol-2-yl)-propyl]-dimethyl-amine]	24.5	6	51.4	61	72.4	10				
CNCCC(c1ccc2ccccc2c1)n1ncnn1 (stereo not drawn) [Example 119, Methyl-(3-naphthalen-2-yl-3-tetrazol-2-yl-propyl)-amine]	43.2	10		78		84				
CNCCC(c1ccc2cc(C)ccc2c1)n1ncnn1 (stereo not drawn) [Example 122, Methyl-[3-(6-methyl-naphthalen-2-yl)-3-tetrazol-2-yl-propyl]-amine]	43.7	3		93		55				
CNCC[C@@H](c1ccc(Cl)c(Cl)c1)n1nnc(C)n1 [Example 129, (3S)-3-(3,4-dichlorophenyl)-N-methyl-3-(5-methyl-2H-tetrazol-2-yl)propan-1-amine]	36.7	62	94.4	43	94.3	84				
CNCCC(c1cc2ccccc2cc1OC)n1nnc(C)n1 (stereo not drawn) [Example 135, [3-(3-Methoxy-naphthalen-2-yl)-3-(5-methyl-tetrazol-2-yl)-propyl]-methyl-amine]		-1		47		17				
CNCCC(c1ccc2cc(F)ccc2c1)n1ncnn1 (stereo not drawn) [Example 136, [3-(6-Fluoro-naphthalen-2-yl)-3-tetrazol-2-yl-propyl]-methyl-amine]		6		59		25				
CNCCC(c1ccc2cc(F)ccc2c1)n1nnc(C)n1 (stereo not drawn) [Example 137, [3-(6-Fluoro-naphthalen-2-yl)-3-(5-methyl-tetrazol-2-yl)-propyl]-methyl-amine]		10		58		39				
CNCCC(c1ccc2cc(OC)ccc2c1)n1ncnn1 (stereo not drawn) [Example 166, [3-(6-Methoxy-naphthalen-2-yl)-3-tetrazol-2-yl-propyl]-methyl-amine]	28.9	4		88		70				
CNCCC(c1ccc2cc(OC)ccc2c1)n1nnc(C)n1 (stereo not drawn) [Example 167, [3-(6-Methoxy-naphthalen-2-yl)-3-(5-methyl-tetrazol-2-yl)-propyl]-methyl-amine]	17.9	3	52.1	82		84				56.9
CNCC[C@@H](c1ccc2ccccc2c1)n1nnc(C)n1 [Example 188, (3S)-Methyl-[3-(5-methyl-tetrazol-2-yl)-3-naphthalen-2-yl-propyl]-amine]	36.7	7	39.5	82	70.7	79				
